Measurements: ChEMBL document CHEMBL1201862, “PubChem BioAssay data set” (2004)
Calls of active or inactive are those of the source.

What was measured:
[1] = target: Peroxisome proliferator-activated receptor gamma/Nuclear receptor coactivator 2 (Homo sapiens, UniProt P37231); test: (§1) TR-FRET dose response biochemical High Throughput Screening assay for agonists of the steroid receptor coactivator 2 (SRC-2) recruitment by the peroxisome proliferator-activated receptor gamma (PPAR gamma): non-selective agonists. [Related pubchem assays: 1297, 1032 ]; assay type: functional
Protein skinhead-1 = target: T1, Protein skinhead-1 (Caenorhabditis elegans, UniProt P34707); assay type: functional
T1 sequence (P34707 whole entry): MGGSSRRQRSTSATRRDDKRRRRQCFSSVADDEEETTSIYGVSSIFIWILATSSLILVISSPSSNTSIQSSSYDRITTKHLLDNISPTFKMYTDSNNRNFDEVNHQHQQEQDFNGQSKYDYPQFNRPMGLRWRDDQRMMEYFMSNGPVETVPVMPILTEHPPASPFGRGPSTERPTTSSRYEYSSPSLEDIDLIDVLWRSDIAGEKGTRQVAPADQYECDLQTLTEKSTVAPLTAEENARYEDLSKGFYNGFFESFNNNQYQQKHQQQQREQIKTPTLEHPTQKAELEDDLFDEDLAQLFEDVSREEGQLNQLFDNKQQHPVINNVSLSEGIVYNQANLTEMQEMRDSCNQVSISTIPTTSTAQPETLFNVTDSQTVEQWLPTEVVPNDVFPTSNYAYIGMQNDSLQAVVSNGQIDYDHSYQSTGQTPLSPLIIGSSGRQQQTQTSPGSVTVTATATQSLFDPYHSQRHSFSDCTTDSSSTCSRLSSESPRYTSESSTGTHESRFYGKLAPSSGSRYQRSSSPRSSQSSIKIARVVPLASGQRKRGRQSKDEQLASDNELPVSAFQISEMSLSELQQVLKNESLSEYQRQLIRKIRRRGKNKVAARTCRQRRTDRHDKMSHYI

Beta-lactamase [2] = target: Beta-lactamase (Salmonella choleraesuis (strain SC-B67), UniProt Q5J463); test: Epi-absorbance-based counterscreen for selective VIM-2 inhibitors: dose response biochemical high throughput screening assay to identify inhibitors of TEM-1 serine-beta-lactamase.
[3] = target: Peroxisome proliferator-activated receptor gamma/Nuclear receptor coactivator 1 (Homo sapiens, UniProt P37231); test: as §1, with “1 (SRC-1)” for “2 (SRC-2)”, “assays (depositor defined):AID1300, AID1808, AID504735, AID631]” for “assays: 1297, 1032 ]”; assay type: protein assay
[4] = target: FAD-linked sulfhydryl oxidase ALR (Homo sapiens, UniProt P55789); test: inhibitors of human ALR sulfhydryl oxidase, dose response, biochemical, H2O2 detection, luminescence, cherry-pick (AID 493248)
Beta-lactamase [5] = target: T2, Beta-lactamase (Pseudomonas aeruginosa, UniProt Q79MP6); test: IMP-1 metallo-beta-lactamase inhibitors, dose response, selectivity assay for VIM-2 inhibitor project, biochemical, epi-absorbance (AID 1920)
Beta-lactamase [6] = target: T2, Beta-lactamase; test: […] counterscreen for selective VIM-2 inhibitors: dose response biochemical high throughput screening assay to identify inhibitors of IMP-1 metallo-beta-lactamase.
[7] = target: Peroxisome proliferator-activated receptor gamma/Nuclear receptor coactivator 3 (Homo sapiens, UniProt P37231); test: as §1, with “3 (SRC-3)” for “2 (SRC-2)”, “1301 (Confirmation screen.), 1048 (Primary screen.)]” for “1297, 1032 ]”; assay type: functional
Estrogen receptor beta [8] = target: T3, Estrogen receptor beta (Homo sapiens, UniProt Q92731);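 also: recombinant ER-beta bound to coactivator SRC1 peptide in presence of estradiol agonist; inhibitors block coactivator peptide binding and lower the FRET signal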
cells [9] = test: cells
Major prion protein = Major prion protein (Homo sapiens, UniProt P04156); assay type: functional, cell-based
Estrogen receptor beta [10] = target: T3, Estrogen receptor beta; test: ERβ–SRC-3 coactivator interaction inhibitors, confirmation, orthogonal assay, biochemical, ELISA, streptavidin-HRP readout (AID 1060)
[11] = target: Protein-tyrosine kinase 2-beta (Homo sapiens, UniProt Q14289);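 also: potency of inhibitors of PYK2 kinase phosphorylation of poly-GT substrate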
[12] = HEK293T cytotoxicity, dose response, cytotoxicity control for miR-122 modulator project, cell-based, inhibitor set, cherry-pick, set 2 (AID 720697); assay type: functional
[13] = miR-122 activators in hepatoma reporter cells, dose response, cell-based, Huh7 psiCHECK-miR122, Renilla luciferase, cherry-picked (AID 651956); assay type: functional;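 also: huh7 hepatoma cells stably carrying a psiCHECK-2 miR-122 sensor plasmid; renilla luciferase signal reporting endogenous miR-122 activity after 48 h compound exposure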
cells [14] = assay type: functional, cell-based
cells [15] = assay type: functional, cell-based; remark: listed apart in the source
[16] = target: T4, Sentrin-specific protease 6 (Homo sapiens, UniProt Q9GZR1); test: SAR Analysis of small molecule inhibitors of Sentrin-specific protease 6 (SENP6) using a Luminescent assay. [Related pubchem assays (depositor defined):AID2582, AID2599]; assay type: functional
T4 sequence (Q9GZR1 whole entry): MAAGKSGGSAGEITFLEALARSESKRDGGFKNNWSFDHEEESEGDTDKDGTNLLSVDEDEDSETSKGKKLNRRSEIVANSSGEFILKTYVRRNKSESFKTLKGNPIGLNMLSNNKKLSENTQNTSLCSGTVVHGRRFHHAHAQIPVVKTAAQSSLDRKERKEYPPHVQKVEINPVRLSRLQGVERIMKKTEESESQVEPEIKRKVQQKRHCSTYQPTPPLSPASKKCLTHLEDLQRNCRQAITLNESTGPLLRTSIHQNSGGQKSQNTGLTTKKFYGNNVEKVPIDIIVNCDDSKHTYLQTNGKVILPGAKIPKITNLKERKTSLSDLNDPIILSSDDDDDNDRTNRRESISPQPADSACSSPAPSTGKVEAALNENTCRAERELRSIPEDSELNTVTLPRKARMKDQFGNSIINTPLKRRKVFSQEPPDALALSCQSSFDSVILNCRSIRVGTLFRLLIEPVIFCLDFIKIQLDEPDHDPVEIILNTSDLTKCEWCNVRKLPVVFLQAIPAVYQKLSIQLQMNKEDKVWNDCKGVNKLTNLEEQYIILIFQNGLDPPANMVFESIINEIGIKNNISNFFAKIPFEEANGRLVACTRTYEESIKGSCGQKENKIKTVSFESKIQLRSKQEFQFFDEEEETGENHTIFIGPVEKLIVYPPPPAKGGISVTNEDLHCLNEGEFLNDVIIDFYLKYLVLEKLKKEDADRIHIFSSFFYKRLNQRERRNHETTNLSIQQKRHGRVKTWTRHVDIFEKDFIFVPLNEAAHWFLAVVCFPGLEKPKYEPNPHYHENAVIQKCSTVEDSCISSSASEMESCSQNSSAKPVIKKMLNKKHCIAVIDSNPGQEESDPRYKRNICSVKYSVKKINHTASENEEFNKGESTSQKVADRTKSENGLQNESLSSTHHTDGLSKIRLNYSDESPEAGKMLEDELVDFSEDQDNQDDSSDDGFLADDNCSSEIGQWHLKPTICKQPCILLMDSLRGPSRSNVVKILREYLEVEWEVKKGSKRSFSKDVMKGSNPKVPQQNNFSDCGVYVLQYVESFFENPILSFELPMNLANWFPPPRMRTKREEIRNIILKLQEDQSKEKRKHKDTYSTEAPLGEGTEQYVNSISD

[17] = target: T5, Sentrin-specific protease 8 (Homo sapiens, UniProt Q96LD8); test: SENP8 protease inhibitors, SAR follow-up, biochemical, luminescence (AID 504501); assay type: functional
T5 sequence (Q96LD8 whole entry): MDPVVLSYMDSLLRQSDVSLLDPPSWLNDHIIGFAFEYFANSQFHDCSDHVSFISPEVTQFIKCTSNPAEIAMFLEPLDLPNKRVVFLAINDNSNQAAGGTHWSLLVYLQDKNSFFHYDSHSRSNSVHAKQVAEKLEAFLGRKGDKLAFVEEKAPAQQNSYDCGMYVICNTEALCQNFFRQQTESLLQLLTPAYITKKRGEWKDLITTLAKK

Caspase-3 = target: T6, Caspase-3 (Homo sapiens, UniProt P42574); test: SAR Analysis of small molecule inhibitors of Sentrin-specific proteases (SENPs) using a Caspase-3 Selectivity assay. [Related pubchem assays (depositor defined):AID2540, AID2599, AID434973, AID489001]; assay type: functional
T6 sequence (P42574 whole entry): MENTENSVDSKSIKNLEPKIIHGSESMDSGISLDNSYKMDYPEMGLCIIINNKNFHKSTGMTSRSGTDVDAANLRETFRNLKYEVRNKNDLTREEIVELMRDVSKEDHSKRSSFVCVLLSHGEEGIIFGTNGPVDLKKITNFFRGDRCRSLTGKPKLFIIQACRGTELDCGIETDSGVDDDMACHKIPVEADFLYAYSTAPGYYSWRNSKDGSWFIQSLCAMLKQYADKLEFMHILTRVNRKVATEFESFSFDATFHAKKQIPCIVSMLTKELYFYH

[18] = non-specific cell cytotoxicity, dose response, cytotoxicity control for PAX8 inhibitor project, plate reader, dry powder samples (AID 743021); assay type: functional, cell-based
Paired box protein Pax-8 = Paired box protein Pax-8 (Homo sapiens, UniProt Q06710); test: inhibitors of PAX8-driven TPO luciferase reporter, dose response, RMG-I cells, cherry-pick (AID 687027); assay type: functional, cell-based;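 also: luciferase reporter driven by Pax8 target thyroperoxidase promoter measured by SteadyGlo luminescence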
[19] = P. falciparum Dd2 growth inhibitors, dose response, SYBR Green, cherry-picked samples (AID 1159567); assay type: functional, cell-based
[20] = HepG2 cell cytotoxicity, dose response, cytotoxicity control, cherry-picked samples (AID 1159577); assay type: functional, cell-based
[21] = IGROV1 ovarian cancer cell cytotoxicity, dose response, PAX8 inhibitor project, plate reader, dry powder samples (AID 743043); assay type: functional, cell-based; settings: IGROV-1
[22] = NIH:OVCAR-3 ovarian cancer cell cytotoxicity, dose response, PAX8 inhibitor project, plate reader, dry powder samples (AID 743044); assay type: functional, cell-based
[23] = target: T7, DNA repair protein RAD52 homolog (Homo sapiens, UniProt P43351); assay type: functional, biochemical
T7 sequence (P43351 whole entry): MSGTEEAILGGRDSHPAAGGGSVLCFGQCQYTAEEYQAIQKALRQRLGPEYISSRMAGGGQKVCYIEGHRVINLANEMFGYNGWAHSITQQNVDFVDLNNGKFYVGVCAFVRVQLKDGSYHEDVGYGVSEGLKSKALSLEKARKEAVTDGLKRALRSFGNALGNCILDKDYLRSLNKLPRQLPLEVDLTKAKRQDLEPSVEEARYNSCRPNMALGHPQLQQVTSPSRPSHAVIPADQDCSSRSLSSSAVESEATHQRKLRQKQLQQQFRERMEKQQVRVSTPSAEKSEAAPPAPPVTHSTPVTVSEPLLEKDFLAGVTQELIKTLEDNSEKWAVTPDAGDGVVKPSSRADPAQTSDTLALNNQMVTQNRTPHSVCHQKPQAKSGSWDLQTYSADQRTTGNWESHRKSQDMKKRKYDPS

[24] = human group III sPLA2 inhibitors, dose response, biochemical, QFRET, IC50 (AID 743457);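 also: green fluorescence rise as the enzyme cleaves BODIPY PC-A2 in liposomes; potency for inhibition of the enzyme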
[25] = T. cruzi growth inhibition in host cells, dose response, cell-based, plate reader, dry powder, set 2 (AID 652275); assay type: functional
[26] = HEK293 cell cytotoxicity, dose response, cytotoxicity control, cherry-picks, set 5 (AID 1053117); assay type: functional, cell-based

Question: Which results are given for Cc1c(Cl)c(-c2nnc(S)n2-c2ccc(F)cc2)nn1C?
Answer: EC50 [1]: > 79.4 µM (not active); IC50 (Protein skinhead-1): > 100 µM (inactive); IC50 (Beta-lactamase [2]): > 59.6 µM (inactive); EC50 [3]: > 79.4 µM (inactive); AC50 [4]: 5.12 µM (active); IC50 (Beta-lactamase [5]): > 59.6 µM (inactive); IC50 (Beta-lactamase [6]): > 59.6 µM (inactive); EC50 [7]: > 79.4 µM (not active)

Question: For CCC(Sc1ncnc2sc(C)c(C)c12)C(=O)OC (stereo unspecified), which IC50 (Estrogen receptor beta [8]) is on record?
Answer: 14.1 µM (active)

Question: And the IC50 (cells [9])?
Answer: > 138 µM (inactive)

Question: What about the IC50 (Major prion protein) of the same compound?
Answer: 2.46 µM (active)

Question: And the IC50 (Estrogen receptor beta [10])?
Answer: < 0.023 µM (not active)

Question: What does the source list for COC(=O)CSc1nc(C(C)C)nc2ccccc12?
Answer: IC50 (cells [9]): > 138 µM (inactive); IC50 (Major prion protein): 0.91 µM (active); IC50 [11]: > 69.5 µM (not active)

Question: For CN(C)C(=O)c1ccc(NC(=O)c2cc(-n3cnnc3)ccc2Cl)cc1, which AC50 [12] is on record?
Answer: 1.88 µM (active)

Question: What about the AC50 [13] of the same compound?
Answer: 1.1 µM (active)

Question: Which IC50 (cells [14]) does the source give for O=C(NCCS(=O)(=O)NCCc1ccccc1)c1ccc2c(c1)OCO2 here?
Answer: > 29.9 µM (inactive)

Question: What about the EC50 (cells [15]) of the same compound?
Answer: > 29.9 µM (inactive)

Question: For O=C(Nc1ccccc1F)c1ccc(OCc2ccccc2)cc1, which IC50 (cells [14]) is on record?
Answer: > 29.9 µM (inactive)

Question: What about the IC50 [16] of the same compound?
Answer: > 99 µM (inactive)

Question: And the IC50 [17]?
Answer: > 99 µM (inactive)

Question: And the IC50 (Caspase-3)?
Answer: 10.3 µM (active)

Question: And the EC50 (cells [15])?
Answer: > 29.9 µM (inactive)

Question: With NC(=O)c1csc(-c2ccncc2)n1 as the compound, how does the AC50 [12] read?
Answer: 8.85 µM (active)

Question: For COc1ccc(-c2ccc([C@@H]3[C@@H](CO)N4CCCCN(C(=O)Cc5ccccc5)C[C@H]34)cc2)cc1, which AC50 [18] is on record?
Answer: 40.8 µM (active)

Question: And the AC50 (Paired box protein Pax-8)?
Answer: 41.5 µM (active)

Question: And the AC50 [19]?
Answer: 6.32 µM (active)

Question: And the AC50 [20]?
Answer: > 39 µM (inactive)

Question: Which AC50 (Paired box protein Pax-8) does the source give for O=C1CN(S(=O)(=O)Cc2ccccc2)C[C@@H]2[C@H](c3ccc(C#Cc4ccc(F)cc4)cc3)[C@H](CO)N12 here?
Answer: 9.68 µM (active)

Question: And the AC50 [21]?
Answer: 52.7 µM (active)

Question: What about the AC50 [22] of the same compound?
Answer: 31 µM (active)

Question: With N=C(N)/N=N/C(=N\Nc1ccccc1)c1ccc(Cl)cc1 as the compound, how does the AC50 [23] read?
Answer: 12.7 µM (active)

Question: And the IC50 [24]?
Answer: > 122 µM (inactive)

Question: For CN(C)C(=O)c1cccc(-c2ccc([C@H]3[C@H](CO)N4CCCCN(C(=O)C5CCCC5)C[C@@H]34)cc2)c1, which AC50 [25] is on record?
Answer: 0.065 µM (active)

Question: With CO[C@H]1CN(C)C(=O)c2cc(NC(=O)Nc3ccc(Cl)c(Cl)c3)ccc2OC[C@@H](C)NC[C@H]1C as the compound, how does the AC50 [26] read?
Answer: > 52 µM (inactive)
